The values below come from patent publication US20050159359A1, “Methods and compositions for derepression of IAP-inhibited caspase” (The Burnham Institute, priority 2001, published 2005).

As usually defined, the EC50 is the concentration at which the effect is half-maximal. A low value points to a more potent agent. A word on the Ki: it is the equilibrium dissociation constant of an inhibitor or competing ligand from its target.

Where no end group is shown, it is not given here. [ ]: non-standard residue; d: D form. The star is where a group is joined. Phe(4-Cl) = N[C@@H](Cc1ccc(Cl)cc1)C(=O)O; dPhe(4-Cl) = N[C@H](Cc1ccc(Cl)cc1)C(=O)O; dPhe(4-F) = N[C@H](Cc1ccc(F)cc1)C(=O)O; 2Nal = N[C@@H](Cc1ccc2ccccc2c1)C(=O)O; d2Nal = N[C@H](Cc1ccc2ccccc2c1)C(=O)O; Fmoc = O=C(OCC1c2ccccc2-c2ccccc21)*; 2Thi = N[C@@H](Cc1cccs1)C(=O)O

One series has as its target full length XIAP (Homo sapiens, UniProt P98170). Description: SMAC competition assay: rhodamine labeled SMAC tetrapeptide AVPI and full length XIAP. To be noted: for EC50: amount of compound necessary to restore Caspase-3 activity to 50% of Vmax; for Relative Potency: fold relative to SMAC AVPI tetrapeptide.
Series [1] has as its system normal bone marrow mononuclear cells. As to the kind of experiment: Toxicity to normal bone marrow mononuclear cells, Annexin V flow cytometry. It counts as cell-based. Particulars: same culture conditions as Jurkat killing; 5 μM, 20 hours. The procedure:
A comparison of the effects of TPI1396-34 on normal bone marrow cells versus Jurkat leukemia cells was performed as follows. TPI1396-34 (5 μM) was incubated with Jurkat cells or normal bone marrow mononuclear cells (6.25×10^5/mL) in RPMI and 2.5% FBS for 20 hours. After incubation, cells were washed, stained with FITC-conjugated Annexin V antibody and propidium iodide, and fluorescence measured by flow cytometry as described above.
A general note: In flow cytometry, cells or beads pass a laser one at a time.

For series [2], the system named is U937 leukemia cells (U937-Neo, U937-XIAP). Description: Apoptosis in U937 cells transfected with Neo-control or XIAP plasmid. To be noted: U937-XIAP vs U937-Neo, 5 or 8 μM, 20 hours. Format: cell-based. The procedure: After incubation, cells were washed, stained with FITC-conjugated Annexin V antibody and propidium iodide, and fluorescence measured by flow cytometry as described in Example X.

The subject of a further series is HeLa cells. As to the kind of experiment: Apoptosis in HeLa cells transfected with XIAP, XIAP mutants or Bcl-XL, Annexin V. Format: cell-based. Particulars: 5 μM, 20 hours. How it is done:
In addition to transfecting the cells with full-length XIAP, analogous assays were performed with HeLa cells transfected with plasmids over-expressing various XIAP mutants. […] The mutant was produced by site-directed mutagenesis to modify positions 148, 219, 223, 314 and 323 to contain alanine. HeLa cells were also transiently transfected with plasmids encoding Bcl-XL, an anti-apoptotic protein that operates upstream of Caspases to suppress Cytochrome C release from mitochondria. HeLa cells (2.5×10^5) were seeded onto six well plates in 2 mL DMEM H21 with 5% FBS. After 24 hrs, cells were transfected (Gene Porter) with plasmids. At 48 hrs after transfection, cells were treated with 5 μM of TPI1396-34 for 20 hours. Both floating and adherent cells were then recovered from cultures, washed, and apoptosis was determined by Annexin V staining using flow cytometry.

Series [3] deals with ALVA31 prostate cancer cells. As to the kind of experiment: ALVA31 cell viability (XTT dye-reduction and trypan blue dye exclusion). Format: cell-based. Particulars: IAP antagonist 40 μM or VP-16 100 μM, 24 hrs. How it is done: The in vivo effects of TPI792-33 or TPI792-35, either individually or in combination with the cytotoxic anticancer drug VP-16 (etoposide), on derepression of XIAP-inhibited caspase and viability of ALVA31 cells was determined as follows. ALVA31 prostate cancer cells were seeded onto 96 well plates (10^4 cells/well) in 100 μL RPMI containing 2.5% fetal bovine serum (FBS). […] After another 24 hrs incubation, cell viability was measured by the XTT dye-reduction assay (Roche, Molecular Biochemicals; Indianapolis, Ind.) and trypan blue dye exclusion assay.
Background: Formazan colour is commonly taken as a measure of viable cells.

The target of another series is XIAP-inhibited caspase-3 (Homo sapiens, UniProt P98170). Description: IAP derepression assay: Ac-DEVD-AFC hydrolysis by caspase-3 in presence of GST-XIAP. It counts as biochemical. Particulars: tested at 0.4, 2, 10 and 50 micrograms per milliliter. How it is done:
Caspase activity was assayed by release of −7-amino-4-trifluoromethyl-coumarin (AFC) from Ac-DEVD-AFC synthetic peptides using a Molecular Devices Spectromax 340 (see Zhou et al., J. Biol. Chem. 272: 7797-7800 (1997)). […] The ratio of Vmax for hydrolysis of Ac-DEVD-AFC in the presence and absence of the candidate mixture was calculated and used to identify those that contain an agent that derepresses an IAP-inhibited caspase.
Screening of each mixture from the DCR390, TPI1239 or TPI1328 library, respectively, using the above described assay was carried out as follows. Each mixture was aliquoted in a 25 microliter volume and in duplicate to a well of a 96 well microtiter plate. […] Fluorescence of liberated AFC was immediately detected from each well for 30 minutes at 30 second intervals. The Vmax for hydrolysis of AC-DEVD-AFC from each well was measured using the softmax software package.

The nature of series [4]: Jurkat cell killing, Annexin V / propidium iodide flow cytometry. Format: cell-based. To be noted: human. The procedure:
The following assay was used to test the ability of individual compounds from the TPI1396 and TPI1391 libraries to induce apoptosis of cultured tumor cell lines. Each of the compounds listed in Table IX was individually added to Jurkat leukemia cells (6.25×10^5 cells/mL) in RPMI containing 2.5% FBS at various concentrations for 20 hours. After incubation, cells were washed and stained with FITC-conjugated Annexin V antibody and propidium iodide (Biovision; Mountain View, Calif.). Cells were incubated for 20 minutes at room temperature in the dark and fluorescence was measured by flow cytometry (FACScan, Immunocytometry system; Becton-Dickinson; San Jose, Calif.). Cells staining positive for Annexin V were deemed non-viable.
The TPI1396-34 and TPI1391-28 compounds were further tested as set forth below.

In another series the target is caspase-3 and -7. To be noted: read-out: Ki for inhibition of caspase-3 and -7; reported; cited from earlier work.

Chain of full length XIAP (P98170 whole entry): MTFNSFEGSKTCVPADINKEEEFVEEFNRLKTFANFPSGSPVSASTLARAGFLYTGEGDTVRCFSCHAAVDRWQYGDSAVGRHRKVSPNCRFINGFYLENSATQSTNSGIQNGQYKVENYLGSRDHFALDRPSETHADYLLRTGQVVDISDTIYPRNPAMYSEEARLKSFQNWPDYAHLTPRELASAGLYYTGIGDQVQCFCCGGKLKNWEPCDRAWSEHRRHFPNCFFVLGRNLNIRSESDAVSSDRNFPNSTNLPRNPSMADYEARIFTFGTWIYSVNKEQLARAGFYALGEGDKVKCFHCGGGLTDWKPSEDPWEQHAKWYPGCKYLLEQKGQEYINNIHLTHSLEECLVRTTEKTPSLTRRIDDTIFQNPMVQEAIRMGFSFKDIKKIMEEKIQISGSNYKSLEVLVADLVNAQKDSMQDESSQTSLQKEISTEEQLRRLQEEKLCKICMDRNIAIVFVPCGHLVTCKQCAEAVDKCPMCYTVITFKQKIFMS
Chain of XIAP-inhibited caspase-3 (P98170 whole entry): as above

Consider `CCCCCCCN1C(=O)C(=O)N([C@H](CCCC)CNCc2ccccc2)C[C@@H]1Cc1ccc2ccccc2c1` [TPI1391-21], for which, at full length XIAP, the EC50 is 37 µM and the “Relative Potency” value came to 3.4.

As for `CC(C)C[C@@H]1CN([C@H](CNCc2ccccc2)Cc2ccc3ccccc3c2)C(=O)C(=O)N1CCc1cccc(C(F)(F)F)c1` [TPI1391-28], the “toxicity to normal bone marrow cells” value in series [1] was “little toxicity”. Also, on full length XIAP, the “Relative Potency” value is 4.8.

For `COc1ccc(CCN2CCC[C@@H]2CN(C(=O)Nc2ccccc2)[C@@H](CNC(=O)Nc2ccccc2)CC2CCCCC2)cc1` [TPI1396-34], the “effect of XIAP over-expression on apoptosis induction” value in series [2] was “resistant”. In addition, the “toxicity to normal bone marrow cells” value in series [1] is on record as “little toxicity”. Besides, the midpoint of the response at full length XIAP, the EC50, lay at 33 µM. Besides, the apoptosis result with HeLa cells (HeLa expressing XIAP mutant with mutated SMAC-binding pocket) is “not protected”; in the series with HeLa cells (HeLa expressing mutant of only the BIR2 domain), “not protected”; in the series on HeLa cells (HeLa expressing the BIR3 domain), “protected”; in the series with HeLa cells (HeLa over-expressing Bcl-XL), “not blocked”; with HeLa cells (HeLa over-expressing full-length XIAP), “protected”; with HeLa cells (HeLa transfected with control vector) it was “induced apoptosis”.

As for `COc1cc([C@@H]2c3cc4c(cc3[C@@H](O[C@@H]3O[C@@H]5CO[C@@H](C)O[C@H]5[C@H](O)[C@H]3O)[C@H]3COC(=O)[C@H]23)OCO4)cc(OC)c1O` [VP-16, etoposide], the “effect on viability of ALVA31 cells, agent alone” value in series [3] was “essentially no effect”.

Consider “(D-Nal)-(D-pClPhe)-(L-pClPhe)-(Lys-εFmoc) ([d2Nal][dPhe(4-Cl)][Phe(4-Cl)]K(Fmoc)) [TPI792-9]”, for which the “LC (lowest concentration with a ratio of 2 or higher in the derepression assay)” value with XIAP-inhibited caspase-3 worked out at 10 µg/mL.

With “(D-Nal)-(L-Nal)-(D-Lys-εFmoc)-(Lys-εFmoc) ([d2Nal][2Nal][dK](Fmoc)K(Fmoc)) [TPI792-17]”, the “LC (lowest concentration with a ratio of 2 or higher in the derepression assay)” value with XIAP-inhibited caspase-3 was determined as 2 µg/mL.

For “(D-Nal)-(L-Nal)-(L-pClPhe)-(Lys-εFmoc) ([d2Nal][2Nal][Phe(4-Cl)]K(Fmoc); also: 4: D-Lys-εFmoc in Table V) [TPI792-15]”, the “LC (lowest concentration with a ratio of 2 or higher in the derepression assay)” value in the series with XIAP-inhibited caspase-3 was 2 µg/mL.

“(D-Nal)-(Lys-εFmoc)-(L-pClPhe)-(Lys-εFmoc) ([d2Nal]K(Fmoc)[Phe(4-Cl)]K(Fmoc); not fully specified; printed as (D-Nal)-(Lys-εFmoc)-(L-pClPhe)-(Lys-εFmoc)) [TPI792-3]”: the “LC (lowest concentration with a ratio of 2 or higher in the derepression assay)” value with XIAP-inhibited caspase-3 turned out to be 2 µg/mL.

With “(L-ThiAla)-(D-pClPhe)-(L-pClPhe)-(Lys-εFmoc) ([2Thi][dPhe(4-Cl)][Phe(4-Cl)]K(Fmoc)) [TPI792-27]”, the “LC (lowest concentration with a ratio of 2 or higher in the derepression assay)” value in the series with XIAP-inhibited caspase-3 was found to be 2 µg/mL.

For “(L-ThiAla)-(Lys-εFmoc)-(D-Nal)-(Lys-εFmoc) ([2Thi]K(Fmoc)[d2Nal]K(Fmoc)) [TPI792-19]”, in the series with XIAP-inhibited caspase-3, the “LC (lowest concentration with a ratio of 2 or higher in the derepression assay)” value amounted to 2 µg/mL.

As for “(L-ThiAla)-(Lys-εFmoc)-(L-pClPhe)-(pF-D-F) ([2Thi]K(Fmoc)[Phe(4-Cl)][dPhe(4-F)]) [TPI792-22]”, the “LC (lowest concentration with a ratio of 2 or higher in the derepression assay)” value with XIAP-inhibited caspase-3 was determined as 2 µg/mL.

As to “H-AVPIAQK-NH2 [SMAC, H-Ala-Val-Pro-Ile-Ala-Gln-Lys-NH2]”, in series [4] (50 μM), the percent nonviable cells at 20 hours, 50 µM was roughly 16%. In series [4] (100 μM), this compound had a percent nonviable cells at 20 hours, 100 µM of 15%.

Turning to “cIAP2: cellular IAP protein, human inhibitor of apoptosis protein”, the Ki at caspase-3 and -7 is 0.0002 to 0.01 µM.
